# US20070104714A1, “Composition and method for the treatment of cancer and other physiologic conditins based on modulation of the ppar-gamma pathway and her-kinase axis” (CEDARS-SINAI MEDICAL CENTER, priority 2003, published 2007)
# What was measured:
# [1] = test system: LuCaP-35 human prostate cancer xenografts; assay: Tumor growth of androgen-dependent LuCaP-35 prostate cancer xenografts in nude mice; format: in vivo; details: 200 mg/kg o.g. daily; p=0.0103
# [2] = test system: PPARγ1; assay: PPARγ protein (Western blot) and mRNA (RT-PCR) in treated prostate cancer xenografts; format: in vivo, nude mice; details: for PPARγ protein by immunoblot in xenograft lysates of combination study: 22 days of treatment
# Protocol: (§1) Total RNA was extracted from prostate tumors or the LNCaP cell line using the TRIZOL reagent (obtained from Invitrogen Corp.; San Diego, Calif.). Samples were heated at 95° C. for 3 minutes and snap-cooled before proceeding with DNase I treatment to prevent RNA/DNA hybridization. DNase I (obtained from Ambion; Austin, Tex.) was used to remove any genomic DNA that might interfere with the reaction. Samples were treated with DNase I for 1 hour at 37° C. The RNA yield was quantified spectrometrically.
# Total RNA was reverse-transcribed (RT) into cDNA and polymerase chain reaction (PCR) was performed in the same reaction using a real-time TAQman One-Step RT-PCR Master Mix Reagents Kit (obtained from Applied Biosystems; Foster City, Calif.). The sequences of the primer/probe sets used for this analysis are as follows. F and R are the forward and reverse primers, respectively, and P is the fluorescent-labeled probe.
# The real-time one step RT-PCR cycling conditions for all primer sets were as follows: 30 min at 48° C. for RT step; 10 min at 95° C. for […] Gold Activation; and 40 cycles for cDNA denaturing (95° C., 15 s), and annealing/elongation (60° C. for 1 min) steps. PCR reactions for each template were done in triplicate using 1 μg of total RNA per sample. Each gene-specific primer pair was tested on standard 384-well plates. Standard curves were constructed using 10-1000 ng of total RNA prepared from the CWRSA6 tumor line.
# The comparative CT method (Perkin Elmer Applied Biosystems; Foster City, Calif.) was used to determine relative quantification of gene expression for each gene compared with the β-actin control. First, the CT values from the β-actin reactions were averaged for each triplicate. Next, the CT values from the gene-of-interest reactions were averaged. The gene-of-interest average was […] the β-actin average to take into account the variability of total RNA.
# (§2) Immunoblots were performed as described in Towbin H., “Electrophoretic Transfer of Proteins from Polyacrylamide Gels to Nitrocellulose Sheets: Procedure and Some Applications,” Proc. Natl. Acad. Sci. USA, Vol. 76, No. 9 p. 4350-4354 (1979) using aliquots of tumor lysates (100 μg per lane) or lysates from LNCaP cells (100 μg per lane). Protein concentration was determined with a Bradford Assay (obtained from Bio-Rad Inc.; Hercules, Calif.). The lysates were separated on 10% SDS polyacrylamide gels and transferred onto nitrocellulose filters. […]
# [3] = test system: cyclin D1 expression in LNCaP cells; assay: Cyclin D1 mRNA (RT-PCR) and protein (Western blot) expression in LNCaP cells; format: cell-based, human
# Protocol: as §1, with “spectrometrically. […]” for “spectrometrically.”
# (§3) The mRNA expression of cyclin D1 (Takayasu, H. et al., “Frequent deletions and mutations of the beta-catenin gene are associated with overexpression of cyclin D1 and fibronectin and poorly differentiated histology in childhood hepatoblastoma,” Clin. Cancer Res., Vol. 7, p. 901-908 (2001)) and the HER-kinase receptors were analyzed using primer sets as described in Agus, D. B. et al, “Targeting ligand activated ErbB2 signaling inhibits breast and prostate tumor growth,” Cancer Cell, Vol. 2, p. […]
# (§4) The comparative CT method (Perkin Elmer Applied Biosystems; Foster City, Calif.) was used to determine relative quantification of gene expression for each gene compared with the β-actin control. […]
# The 22Rv1 cells were seeded into 100 mm dishes and allowed to attach for a period of 18 hours. […] MAP-kinase activation was assessed by Western blot analysis using methods described above. […]
# [4] = test system: HER-kinase receptors; assay: HER-kinase receptor mRNA expression in treated xenografts (RT-PCR); format: in vivo, nude mice; details: data not shown
# Protocol: as §1, with “spectrometrically. […]” for “spectrometrically.”
# as §3, §4
# [5] = test system: phospho-p44/42 MAP kinase; assay: Phospho-MAP kinase (p44/42) Western blot in CWRSA6 xenografts, time course; format: in vivo, nude mice
# Protocol: Immunoblots were performed as described in Towbin H., “Electrophoretic Transfer of Proteins from Polyacrylamide Gels to Nitrocellulose Sheets: Procedure and Some Applications,” Proc. Natl. Acad. Sci. USA, Vol. 76, No. 9 p. 4350-4354 (1979) using aliquots of tumor lysates (100 μg per lane) or lysates from LNCaP cells (100 μg per lane). Protein concentration was determined with a Bradford Assay (obtained from Bio-Rad Inc.; Hercules, Calif.). The lysates were separated on 10% SDS polyacrylamide gels and transferred onto nitrocellulose filters. The membranes were incubated overnight at 4° C. with antibodies against PPARγ (Sc-7273 obtained from Santa Cruz Inc.; Santa Cruz, Calif.), ERK1 (Sc-94 obtained from Santa Cruz Inc.; Santa Cruz, Calif.), and phospho-p44/42 MAP kinase (9101S obtained from Cell Signal; Beverly, Mass.), and cyclin D1 (554180 obtained from BD Pharmingen; San Diego, Calif.) in parallel with anti-β-actin antibodies (A2066 obtained from Sigma; St. Louis, Mo.) and washed well before incubating with the appropriate α-mouse or α-rabbit secondary antibody conjugated with horseradish peroxidase (obtained from Amersham Biosciences, UK).
# [6] = test system: CWRSA6 human prostate cancer xenografts; details: 200 mg/kg o.g. daily; p=0.002
# [7] = biological target: T1, PPARγ (Homo sapiens, UniProt P37231); assay: PPARγ reporter (AOx)3-TK-Luc transient transfection luciferase assay in RAW 267.4 cells; format: cell-based; details: for PPRE-driven reporter gene expression / PPARγ transactivation: varying concentrations, with recombinant PPARγ
# T1 construct: expressed in transfected cells; host or cells: RAW 267.4 mouse macrophages
# T1 sequence (P37231 1-505): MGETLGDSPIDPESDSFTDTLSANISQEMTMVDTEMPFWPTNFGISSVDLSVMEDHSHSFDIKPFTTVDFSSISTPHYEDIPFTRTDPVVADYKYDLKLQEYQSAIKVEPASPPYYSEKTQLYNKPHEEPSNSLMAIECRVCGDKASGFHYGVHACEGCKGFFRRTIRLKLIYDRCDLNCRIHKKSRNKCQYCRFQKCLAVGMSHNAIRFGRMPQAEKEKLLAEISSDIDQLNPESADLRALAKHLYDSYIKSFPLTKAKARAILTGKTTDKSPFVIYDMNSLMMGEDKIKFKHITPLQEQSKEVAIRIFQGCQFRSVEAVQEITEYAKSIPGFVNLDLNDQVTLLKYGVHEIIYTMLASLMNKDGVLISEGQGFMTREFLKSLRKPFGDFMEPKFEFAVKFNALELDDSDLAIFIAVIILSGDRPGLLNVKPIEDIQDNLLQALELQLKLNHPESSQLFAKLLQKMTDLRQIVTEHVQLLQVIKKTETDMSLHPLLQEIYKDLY
# Protocol: […] cells were maintained at 37° C. and 5% CO2 in Dulbecco's modified eagle medium (DMEM) with high glucose (obtained from GIBCO; Grand Island, N.Y.) supplemented with 10% fetal bovine serum (FBS), 100 μg/ml penicillin and 100 μg/ml streptomycin.
# For transfection, cells were grown in DMEM with 10% FBS for at least 24 hours prior to transfection. Transient transfections were performed in 12-well plates for at least 24 hours prior to transfection. At approximately 50% confluence, cells were transfected using the FuGENE transfection reagent (obtained from Roche Diagnostics GmbH; Mannheim, Germany) according to the manufacturer's instruction with 0.5 μg of reporter plasmid (AOx)3-TK-Luc, 0.1 to 0.2 μg of control plasmid pCMXμgal, 0.1 μg PPARγ expression plasmid and carrier DNA for a total of 1 μg DNA per well. After 16 hours, the cells were washed and fresh medium containing the appropriate amount of drugs, prepared in 0.5% DMSO, was added to the cells for another 24 hours. The cells were treated with either vehicle alone (DMSO), indomethacin, rosiglitazone or varying concentrations of R- or S-etodolac.
# For luciferase assays, cells were lysed in potassium phosphate buffer containing 1% TRITON X-100 (obtained from Rohm and Haas Co.; Philadelphia, Pa.) and light emission was detected in the presence of luciferin using a microtiter plate luminometer. Luciferase values were normalized for variations in transfection efficiency using a β-galactosidase internal control. The results are expressed as relative luciferase units (RLU). The luciferase activity values represent the mean of a minimum of three independent transfections performed in triplicate.
# The 22Rv1 cells were seeded into 100 mm dishes and allowed to attach for a period of 18 hours. The media was then replaced with phenol red-free and serum-free RPMI 1640, with 100 μg/ml penicillin and 100 μg/ml streptomycin ±R-etodolac for the indicated times. MAP-kinase activation was assessed by Western blot analysis using methods described above. LNCaP cells were treated with R-etodolac at 200, 400, and 600 μM concentrations for 18 Hours. Total protein or RNA was isolated using methods as described previously. Cyclin D1 protein and mRNA expression were assessed by western blot and a real-time quantitative RT-PCR assay as previously described. This transactivation function is mediated only in the presence of recombinant PPARγ.
# [8] = test system: cyclooxygenase (COX); details: literature (Adachi et al.; Demerson et al.); cited from earlier work
# [9] = Toxicity and weight loss in xenograft-bearing treated animals; format: in vivo, nude mice; details: for Lethal toxicity or significant weight loss: combination study, CWRSA6, R-etodolac 200 mg/kg daily, 2C4 20 mg/kg 2X/wk, three weeks
# [10] = test system: CD36 expression in THP-1 cells; assay: TPA-induced CD36 scavenger receptor expression in THP-1 cells by flow cytometry; format: cell-based, human; details: 200 μM, TPA 40 ng/ml
# Protocol: Prostate carcinoma cell lines, 22Rv1 and LNCaP, and human acute monocytic leukemia (THP-1) cells were obtained from the American Type Culture Collection (Rockville, Md.) and maintained in RPMI 1640 medium supplemented with 10% FBS, 100 μg/ml penicillin and 100 μg/ml streptomycin (obtained from GIBCO; Grand Island, N.Y.). […] Second, the combination of PPARγ transactivation, together with protein kinase C activation by a phorbol ester, has been reported to induce the scavenger receptor CD36 in macrophages (Han and […], 2002). CD36 is documented as a PPARγ-regulated gene (Tontonoz et al., 1998). […] THP-1 cells were treated for 5 days with 200 μM etodolac (racemic mixture) and 20 μM troglitazone in the presence or absence of 40 ng/ml phorbol ester (TPA) for 48 hours. Cells were fixed and stained with unconjugated anti-CD36 and FITC conjugated anti-IgG and analyzed by flow cytometry. A population of 10,000 viable cells was analyzed for each treatment.
# [11] = test system: phospho-MAP kinase in 22Rv1 cells; assay: Phospho-MAP kinase activation Western blot in 22Rv1 prostate cancer cells; format: cell-based, human; details: 500 μM, within 20 minutes of addition, then sustained
# Protocol: as §2
# The 22Rv1 cells were seeded into 100 mm dishes and allowed to attach for a period of 18 hours. […] MAP-kinase activation was assessed by Western blot analysis using methods described above. […] Cyclin D1 protein and mRNA expression were assessed by western blot and a real-time quantitative RT-PCR assay as previously described. […]
# [12] = test system: NIH3T3-PPARγ cells; assay: Neutral lipid accumulation (Oil Red O) in NIH3T3 cells expressing recombinant PPARγ; format: cell-based, mouse
# Protocol: Third, PPARγ is accepted as a master regulator of adipocyte differentiation. […] NIH3T3 cells that stably overexpress retrovirally expressed recombinant PPARγ were obtained from Dr. Ronald Evans (Salk Institute, La Jolla, Calif.). […] NIH3T3 cells stably expressing recombinant PPARγ (obtained from Dr. Ronald Evans of the Jonas Salk Institute; San Diego, Calif.) were maintained in DMEM supplemented with 10% BCS, 100 μg/ml penicillin and 100 μg/ml streptomycin (obtained from GIBCO; Grand Island, N.Y.). The cells were treated for seven days with the indicated compounds and concentrations and stained for neutral lipids with Oil Red O as described by Green and Kehinde (“Sublines of mouse 3T3 cells that accumulate lipid,” Cell, Vol. 1, p. 113-116 (1974)).
compound,measurement,setting,value
CCc1cccc2c3c([nH]c12)[C@@](CC)(CC(=O)O)OCC3 [R-etodolac],Tumor growth inhibition relative to control-treated animals,[1],46%
same,PPARγ protein in tumors vs vehicle treated control,"[2]; CWRSA6 and LuCaP-35 xenografts, two to three weeks of treatment, 200 mg/kg",completely eliminated
same,PPARγ receptor level in time course experiment,"[2]; CWRSA6 xenografts, 24 to 72 hours post treatment",upregulation of the PPARγ receptor in the majority of the animals
same,PPARγ protein by immunoblot in xenograft lysates of combination study,[2]; CWRSA6 xenografts,complete ablation
same,Cyclin D1 protein expression,"[3]; 18 hours, 200, 400 and 600 μM",downregulation
same,Cyclin D1 mRNA expression,"[3]; 18 hours, 200 and 400 μM",downregulation
same,mRNA expression of the HER-kinase receptors,[4],did not alter
same,Phosphorylated p44/42 levels,"[5]; 24 hours post treatment, 200 mg/kg",sharp increase
same,Total MAP kinase expression,[5]; time course,No difference
same,"MAP kinase activation, rest of time course",[5]; up to 72 hours,low level of sustained activation
same,Tumor growth inhibition relative to control-treated animals,[6],66%
same,Transactivation of PPARγ reporter (fold-induction of luciferase expression),"[7]; 100 μM, relative to no drug control, 24 hours",13 fold
same,PPRE-driven reporter gene expression / PPARγ transactivation,[7],enhances reporter gene expression in a dose dependent manner
same,COX inhibitory activity,[8],lacks COX inhibitory activity
same,Lethal toxicity or weight loss (greater than 10% body weight),"[9]; 200 mg/kg o.g. daily, single agent study",no lethal toxicity or weight loss
same,Lethal toxicity or significant weight loss,[9],no lethal toxicity or significant weight loss
same,CD36 expression as downstream indicator of PPARγ activation,[10],equivalent potency
same,Phospho-MAP kinase activation,[11],transient peak
same,Accumulation of neutral lipids and morphological changes (Oil Red O),"[12]; 1 μM, seven days",displayed accumulation of neutral lipids
same,Lipid uptake (Oil Red O),"[12]; 500 μM, seven days",significantly more pronounced
same,Lipid uptake in NIH3T3 cells transfected with the empty retroviral vector,"[12]; empty vector control cells, data not shown",did not demonstrate the lipid uptake
CCc1cccc2c3c([nH]c12)[C@](CC)(CC(=O)O)OCC3 [S-etodolac],PPRE-driven reporter gene expression / PPARγ transactivation,[7],can also transactivate PPARγ but to significantly lower levels
2C4: Recombinant humanized HER-2 specific monoclonal antibody that inhibits ligand-induced heterodimerization of ErbB2,PPARγ protein by immunoblot in xenograft lysates of combination study,[2]; CWRSA6 xenografts,expressed PPARγ
same,Lethal toxicity or significant weight loss,[9],no lethal toxicity or significant weight loss
COc1ccc2c(c1)c(CC(=O)O)c(C)n2C(=O)c1ccc(Cl)cc1 [indomethacin],PPARγ transactivation compared with 100 μM R-etodolac,[7]; 10 μM,comparable
